Experimental data: ChEMBL document CHEMBL4808186, “Structure-Based Discovery of Pyrimidine Aminobenzene Derivatives as Potent Oral Reversal Agents against P-gp- and BCRP-Mediated Multidrug Resistance” (J Med Chem, 2021)
Activity calls are given as the source filed them. No cut-off for these calls is given here.

How the values were obtained:
K562 = test: Cytotoxicity against human K562 cells incubated for 48 hrs by MTT assay; format: functional, cell-based; settings: K562, 48 h
K562/A02 [1] = test: Cytotoxicity against P-gp overexpressing human K562/A02 cells incubated for 48 hrs by MTT assay; format: functional, cell-based; settings: K562/A02, 48 h, read-out: IC50
[2] = n-Octanol/water partition coefficient, logP of the compound by UHPLC analysis; format: physicochemical
[3] = target: T1, ATP-dependent translocase ABCB1 (Homo sapiens, UniProt P08183); test: Inhibition of P-gp-mediated multidrug resistance in human K562/A02 cells assessed as Adriamycin accumulation at 1 to 10 uM pretreated 1 hr followed by treated with adriamycin measured after 180 mins by fluorescence microscopy; format: cell-based; settings: k562/a02, 4 h, dose 1-10 µM, time 240 min
MDCK-II [4] = test: Inhibition of BCRP-mediated multidrug resistance in MDCK-II cells assessed as mitoxantrone accumulation […] pretreated 1 hr followed by treated with mitoxantrone measured after 180 mins by fluorescence microscopy; format: cell-based; settings: Canis lupus familiaris, time 240.0 min
[5] = target: T1, ATP-dependent translocase ABCB1; test: Inhibition of P-gp-mediated multidrug resistance in human K562/A02 cells assessed as Adriamycin accumulation pretreated 1 hr followed by treated with adriamycin measured after 180 mins by flow cytometry; format: cell-based; settings: k562/a02, 4 h, time 240 min
MDCK-II [6] = test: Inhibition of BCRP-mediated multidrug resistance in MDCK-II cells assessed as mitoxantrone accumulation at 0.1 to 5 uM pretreated 1 hr followed by treated with mitoxantrone measured after 180 mins by flow cytometry; format: cell-based; settings: Canis lupus familiaris, dose 0.1-5 µM, time 240.0 min
[7] = target: T1, ATP-dependent translocase ABCB1; test: Inhibition of P-gp-mediated multidrug resistance in human K562/A02 cells assessed as suppression of Rh123 efflux at 10 uM treated after 90 mins of Rh123 treatment measure up to 120 mins by flow cytometry; format: cell-based; settings: k562/a02, 10 µM
K562/A02 [8] = test: Potentiation of adriamycin-induced apoptosis in human K562/A02 cells assessed as viable cells at 0.5 uM incubated for 48 hrs in presence of 10 uM adriamycin by Annexin-V/FITC-based flow cytometry (reference value: 96.5%); format: functional; settings: read-out: Activity
K562/A02 [9] = test: Potentiation of adriamycin-induced apoptosis in human K562/A02 cells assessed as early apoptotic cells at 0.5 uM incubated for 48 hrs in presence of 10 uM adriamycin by Annexin-V/FITC-based flow cytometry (reference value: 2.9%); format: functional
K562/A02 [10] = test: Potentiation of adriamycin-induced apoptosis in human K562/A02 cells assessed as late apoptotic cells at 0.5 uM incubated for 48 hrs in presence of 10 uM adriamycin by Annexin-V/FITC-based flow cytometry (reference value: 0.4%); format: functional
K562/A02 [11] = test: Potentiation of adriamycin-induced apoptosis in human K562/A02 cells assessed as necrotic cells at 0.5 uM incubated for 48 hrs in presence of 10 uM adriamycin by Annexin-V/FITC-based flow cytometry (reference value: 0.3%); format: functional
K562/A02 [12] = test: Potentiation of adriamycin-induced apoptosis in human K562/A02 cells assessed as viable cells at 5 uM incubated for 48 hrs in presence of 10 uM adriamycin by Annexin-V/FITC-based flow cytometry (reference value: 96.5%); format: functional; settings: read-out: Activity
K562/A02 [13] = test: Potentiation of adriamycin-induced apoptosis in human K562/A02 cells assessed as early apoptotic cells at 5 uM incubated for 48 hrs in presence of 10 uM adriamycin by Annexin-V/FITC-based flow cytometry (reference value: 2.9%); format: functional
K562/A02 [14] = test: Potentiation of adriamycin-induced apoptosis in human K562/A02 cells assessed as late apoptotic cells at 5 uM incubated for 48 hrs in presence of 10 uM adriamycin by Annexin-V/FITC-based flow cytometry (reference value: 0.4%); format: functional
K562/A02 [15] = test: Potentiation of adriamycin-induced apoptosis in human K562/A02 cells assessed as necrotic cells at 5 uM incubated for 48 hrs in presence of 10 uM adriamycin by Annexin-V/FITC-based flow cytometry (reference value: 0.3%); format: functional
K562/A02 [16] = test: Potentiation of adriamycin-induced apoptosis in human K562/A02 cells assessed as viable cells at 10 uM incubated for 48 hrs in presence of 10 uM adriamycin by Annexin-V/FITC-based flow cytometry (reference value: 96.5%); format: functional; settings: read-out: Activity
K562/A02 [17] = test: Potentiation of adriamycin-induced apoptosis in human K562/A02 cells assessed as early apoptotic cells at 10 uM incubated for 48 hrs in presence of 10 uM adriamycin by Annexin-V/FITC-based flow cytometry (reference value: 2.9%); format: functional
K562/A02 [18] = test: Potentiation of adriamycin-induced apoptosis in human K562/A02 cells assessed as late apoptotic cells at 10 uM incubated for 48 hrs in presence of 10 uM adriamycin by Annexin-V/FITC-based flow cytometry (reference value: 0.4%); format: functional
K562/A02 [19] = test: Potentiation of adriamycin-induced apoptosis in human K562/A02 cells assessed as necrotic cells at 10 uM incubated for 48 hrs in presence of 10 uM adriamycin by Annexin-V/FITC-based flow cytometry (reference value: 0.3%); format: functional
K562/A02 [20] = test: Effect on P-gp expression in human K562/A02 cells at 1 to 10 uM incubated for 48 hrs by Western blot analysis; format: functional, cell-based; settings: dose 1-10 µM
MDCK-II [21] = test: Effect on BCRP expression in MDCK-II cells at 1 to 10 uM incubated for 48 hrs by Western blot analysis; format: functional, cell-based; settings: Canis lupus familiaris, dose 1-10 µM
K562/A02 [22] = test: Antitumor activity against human K562/A02 cells xenografted in BALB/c mouse assessed as reduction in tumor size at 4 mg/kg, iv once every 2 days for 14 days in presence of 2 mg/kg adriamycin; format: functional, organism-based; settings: time 2.0 day
K562/A02 [23] = test: Antitumor activity against human K562/A02 cells xenografted in BALB/c mouse assessed as reduction in tumor volume at 4 mg/kg, iv once every 2 days for 14 days in presence of 2 mg/kg adriamycin; format: functional, organism-based; settings: time 2.0 day
K562/A02 [24] = test: Antitumor activity against human K562/A02 cells xenografted in BALB/c mouse assessed as reduction in tumor weight at 4 mg/kg, iv once every 2 days for 14 days in presence of 2 mg/kg adriamycin; format: functional, organism-based; settings: time 2.0 day
K562/A02 [25] = test: Antitumor activity against human K562/A02 cells xenografted in BALB/c mouse assessed as degeneration and necrosis of tumor tissue at 4 mg/kg, iv single dose in presence of 2 mg/kg adriamycin by HE staining; format: functional, organism-based
[26] = Toxicity in BALB/c mouse xenografted with human K562/A02 cells assessed as degeneration and necrosis of liver tissue at 4 mg/kg, iv once every 2 days for 14 days in presence of 2 mg/kg adriamycin by HE staining; format: organism-based; settings: in vivo, 48 h, time 2 day
[27] = Toxicity in BALB/c mouse xenografted with human K562/A02 cells assessed as degeneration and necrosis of kidney tissue at 4 mg/kg, iv once every 2 days for 14 days in presence of 2 mg/kg adriamycin by HE staining; format: organism-based; settings: in vivo, 48 h, time 2 day
MDCK-II [28] = test: cells; settings: Canis lupus familiaris, 48 h
Description: Cytotoxicity against MDCK-II cells incubated for 48 hrs by MTT assay

MDCK-II [29] = test: cells; settings: Canis lupus familiaris, 48 h; remark: listed apart in the source
Description: Cytotoxicity against BCRP-overexpressing MDCK-II cells incubated for 48 hrs by MTT assay

[30] = AUC (0 to t) in Sprague-Dawley rat at 5 mg/kg, iv by UHPLC-MS analysis; format: ADME, organism-based; parameters: dose 5 mg/kg; settings: in vivo
[31] = AUC (0 to t) in Sprague-Dawley rat at 20 mg/kg, po by UHPLC-MS analysis; format: ADME, organism-based; parameters: dose 20 mg/kg; settings: in vivo
[32] = AUC (0 to t) in Sprague-Dawley rat at 20 mg/kg, po in presence of N-(2-(6,7-Dimethoxy-3,4-dihydroisoquinolin-2(1H)-yl)ethyl)-3-((4-(furan-2-yl)pyrimidin-2-yl)amino)-4-methylbenzamide by UHPLC-MS analysis; format: ADME, organism-based; parameters: dose 20 mg/kg; settings: in vivo
[33] = Cmax in Sprague-Dawley rat at 5 mg/kg, iv by UHPLC-MS analysis; format: ADME, organism-based; parameters: route intravenous, dose 5 mg/kg; settings: in vivo
[34] = Cmax in Sprague-Dawley rat at 20 mg/kg, po by UHPLC-MS analysis; format: ADME, organism-based; parameters: route oral, dose 20 mg/kg; settings: in vivo
[35] = Cmax in Sprague-Dawley rat at 20 mg/kg, po in presence of N-(2-(6,7-Dimethoxy-3,4-dihydroisoquinolin-2(1H)-yl)ethyl)-3-((4-(furan-2-yl)pyrimidin-2-yl)amino)-4-methylbenzamide by UHPLC-MS analysis; format: ADME, organism-based; parameters: route oral, dose 20 mg/kg; settings: in vivo
[36] = Tmax in Sprague-Dawley rat at 5 mg/kg, iv by UHPLC-MS analysis; format: ADME, organism-based; settings: in vivo
[37] = Tmax in Sprague-Dawley rat at 20 mg/kg, po by UHPLC-MS analysis; format: ADME, organism-based; settings: in vivo
[38] = Tmax in Sprague-Dawley rat at 20 mg/kg, po in presence of N-(2-(6,7-Dimethoxy-3,4-dihydroisoquinolin-2(1H)-yl)ethyl)-3-((4-(furan-2-yl)pyrimidin-2-yl)amino)-4-methylbenzamide by UHPLC-MS analysis; format: ADME, organism-based; settings: in vivo
[39] = Apparent oral volume of distribution in Sprague-Dawley rat at 5 mg/kg, iv by UHPLC-MS analysis; format: ADME, organism-based; settings: in vivo
[40] = Apparent oral volume of distribution in Sprague-Dawley rat at 20 mg/kg, po by UHPLC-MS analysis; format: ADME, organism-based; settings: in vivo
[41] = Apparent oral volume of distribution in Sprague-Dawley rat at 20 mg/kg, po in presence of N-(2-(6,7-Dimethoxy-3,4-dihydroisoquinolin-2(1H)-yl)ethyl)-3-((4-(furan-2-yl)pyrimidin-2-yl)amino)-4-methylbenzamide by UHPLC-MS analysis; format: ADME, organism-based; settings: in vivo
[42] = Apparent oral clearance in Sprague-Dawley rat at 5 mg/kg, iv by UHPLC-MS analysis; format: ADME, organism-based; settings: in vivo
[43] = Apparent oral clearance in Sprague-Dawley rat at 20 mg/kg, po by UHPLC-MS analysis; format: ADME, organism-based; settings: in vivo
[44] = Apparent oral clearance in Sprague-Dawley rat at 20 mg/kg, po in presence of N-(2-(6,7-Dimethoxy-3,4-dihydroisoquinolin-2(1H)-yl)ethyl)-3-((4-(furan-2-yl)pyrimidin-2-yl)amino)-4-methylbenzamide by UHPLC-MS analysis; format: ADME, organism-based; settings: in vivo
[45] = Bioavailability in Sprague-Dawley rat at 5 mg/kg, iv by UHPLC-MS analysis; format: ADME, organism-based; settings: in vivo
[46] = Oral bioavailability in Sprague-Dawley rat at 20 mg/kg by UHPLC-MS analysis; format: ADME, organism-based; settings: in vivo
[47] = Oral bioavailability in Sprague-Dawley rat at 20 mg/kg in presence of N-(2-(6,7-Dimethoxy-3,4-dihydroisoquinolin-2(1H)-yl)ethyl)-3-((4-(furan-2-yl)pyrimidin-2-yl)amino)-4-methylbenzamide by UHPLC-MS analysis; format: ADME, organism-based; settings: in vivo
in vivo [48] = settings: Sprague-Dawley, rat, iv, 5 mg/kg
Description: Half life in Sprague-Dawley rat at 5 mg/kg, iv by UHPLC-MS analysis

in vivo [49] = settings: Sprague-Dawley, rat, po, 20 mg/kg
Description: Half life in Sprague-Dawley rat at 20 mg/kg, po by UHPLC-MS analysis

T1 sequence (P08183 whole entry): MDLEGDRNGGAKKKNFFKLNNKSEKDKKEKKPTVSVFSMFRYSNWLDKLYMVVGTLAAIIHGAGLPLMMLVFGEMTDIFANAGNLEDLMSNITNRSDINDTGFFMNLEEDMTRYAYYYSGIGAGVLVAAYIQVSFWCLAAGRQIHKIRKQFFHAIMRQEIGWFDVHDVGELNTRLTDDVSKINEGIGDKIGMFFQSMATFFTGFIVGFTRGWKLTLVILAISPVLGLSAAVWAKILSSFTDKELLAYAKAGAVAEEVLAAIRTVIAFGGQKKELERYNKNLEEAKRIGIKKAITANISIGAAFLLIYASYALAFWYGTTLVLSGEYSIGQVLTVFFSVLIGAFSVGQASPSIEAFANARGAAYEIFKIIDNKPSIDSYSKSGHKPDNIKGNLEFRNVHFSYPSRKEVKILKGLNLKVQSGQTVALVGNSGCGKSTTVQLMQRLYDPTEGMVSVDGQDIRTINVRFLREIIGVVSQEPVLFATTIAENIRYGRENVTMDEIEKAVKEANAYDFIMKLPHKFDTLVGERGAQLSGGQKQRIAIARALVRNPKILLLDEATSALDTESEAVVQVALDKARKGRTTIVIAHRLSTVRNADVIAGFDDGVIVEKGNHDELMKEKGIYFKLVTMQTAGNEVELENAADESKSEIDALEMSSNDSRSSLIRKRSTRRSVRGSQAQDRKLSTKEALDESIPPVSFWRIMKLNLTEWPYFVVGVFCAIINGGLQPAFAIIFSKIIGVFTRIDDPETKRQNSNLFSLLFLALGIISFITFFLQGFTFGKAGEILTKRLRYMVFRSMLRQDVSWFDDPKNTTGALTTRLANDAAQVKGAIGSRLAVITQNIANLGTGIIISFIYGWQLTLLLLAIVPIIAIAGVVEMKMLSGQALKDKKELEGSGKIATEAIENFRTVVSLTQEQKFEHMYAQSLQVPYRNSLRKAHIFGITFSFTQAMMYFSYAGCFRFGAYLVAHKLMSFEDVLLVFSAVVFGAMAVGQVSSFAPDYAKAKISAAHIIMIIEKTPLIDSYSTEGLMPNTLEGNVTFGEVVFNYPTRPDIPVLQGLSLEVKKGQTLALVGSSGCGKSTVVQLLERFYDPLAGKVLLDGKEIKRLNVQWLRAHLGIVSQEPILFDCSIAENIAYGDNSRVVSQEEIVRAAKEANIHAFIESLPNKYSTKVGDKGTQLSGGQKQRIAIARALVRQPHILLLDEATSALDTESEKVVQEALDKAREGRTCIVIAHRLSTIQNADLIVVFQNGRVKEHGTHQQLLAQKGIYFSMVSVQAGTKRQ

COc1cc2c(cc1OC)CN(CCNC(=O)c1ccc(C)c(Nc3nccc(-c4ccco4)n3)c1)CC2
IC50 (K562): > 100 µM
IC50 (K562/A02 [1]): > 100 µM
logP [2]: 2.13
Activity [3]: Active
Activity (MDCK-II [4]): Active
Activity [5]: Dose-Dependent Effect
Activity (MDCK-II [6]): Active
Activity [7]: Active
viability at 0.5 µM (K562/A02 [8]): 84.8%
Activity (K562/A02 [9]): 10.9%
Activity (K562/A02 [10]): 3.2%
Activity (K562/A02 [11]): 1.1%
viability at 5 µM (K562/A02 [12]): 76.2%
Activity (K562/A02 [13]): 12.3%
Activity (K562/A02 [14]): 9.2%
Activity (K562/A02 [15]): 2.4%
viability at 10 µM (K562/A02 [16]): 68.3%
Activity (K562/A02 [17]): 19.3%
Activity (K562/A02 [18]): 9.8%
Activity (K562/A02 [19]): 2.5%
Activity (K562/A02 [20]): inactive
Activity (MDCK-II [21]): inactive
Activity (K562/A02 [22]): Active
Activity (K562/A02 [23]): Active
Activity (K562/A02 [24]): Active
Activity (K562/A02 [25]): Active
Activity [26]: Non-Toxic
Activity [27]: Non-Toxic
IC50 (MDCK-II [28]): > 100 µM
IC50 (MDCK-II [29]): > 100 µM

CC(=O)O[C@H]1C(=O)[C@@]2(C)[C@H]([C@H](OC(=O)c3ccccc3)[C@]3(O)C[C@H](OC(=O)[C@H](O)[C@@H](NC(=O)c4ccccc4)c4ccccc4)C(C)=C1C3(C)C)[C@]1(OC(C)=O)CO[C@@H]1C[C@@H]2O [PACLITAXEL]
AUC(0-t) [30]: 1730 ng·h/mL
AUC(0-t) [31]: 611 ng·h/mL
AUC(0-t) [32]: 4490 ng·h/mL
Cmax [33]: 926 ng/mL
Cmax [34]: 233 ng/mL
Cmax [35]: 853 ng/mL
Tmax [36]: 0.44 h
Tmax [37]: 2 h
Tmax [38]: 2.65 h
Vd/F [39]: 5.06 L
Vd/F [40]: 67.4 L
Vd/F [41]: 19.06 L
CL/F [42]: 2.88 L/h
CL/F [43]: 546 mL/min
CL/F [44]: 4.43 L/h
F [45]: 100%
bioavailability [46]: 8.8%
bioavailability [47]: 64.7%
half-life (in vivo [48]): 7.2 min
half-life (in vivo [49]): 1.35 h
